According to patent US4160841A, “Heterocyclic derivatives of 1-(1,3-dioxolan-2-ylmethyl)-1H-imidazoles” (Janssen Pharmaceutica, N.V., priority 1977, dated 1979):
Read-outs that look alike come from different tables or passages of the source.

Tests used:
Candida albicans [1] = assay: Activity of compounds (I) against vaginal candidosis in rats; assay type: in vivo, Female Wistar rats; conditions: 336 h, oral once a day for two days from day of infection, active at the 14th day after infection
Method: Experiment A: Activity of compounds (I) against vaginal candidosis in rats Female Wistar rats of ± 100 g body weight were used. They were ovariectomized and hysterectomized and after three weeks of recovery, 100 μg of oestradiol undecylate in sesame oil was given subcutaneously once a week for 3 consecutive weeks. The thus induced pseudooestrus was controlled by microscopic examination of vaginal smears. Food and water were left available ad libitum. The rats were infected intravaginally with 8.10^5 cells of Candida albicans, grown on Sabouraud broth for 48 hours at 37° C. and diluted with saline. The date of infection varied from day +25 to day +32 after surgical intervention, depending on the appearance of signs of induced pseudo-oestrus. The drugs under investigation were administered orally once a day for two days starting from the day of infection. For each experiment there were placebo treated controls. The results were assessed by taking vaginal smears with sterile swabs on several days after the infection. The swabs were put into Sabouraud broth in petri-dishes and incubated for 48 hours at 37° C. If no growth of Candida albicans occured, i.e., when the animals were negative at the end of the experiment, this was due to drug administration because it never happened in placebo treated controls. The tables I and II below give the lowest oral dose of the drug under investigation which was found active at the 14th day after infection.

Candida albicans [2] = assay: Activity of compounds (I) against crop candidosis in turkeys; assay type: in vivo; conditions: medicated feed for 13 consecutive days from day of infection, crops of 50% of animals completely negative for Candida albicans; for Crop candidosis in Turkeys: ED50 in mg/kg of feed.: Table I
Method: Experiment B: Activity of compounds (I) against crop candidosis in turkeys Turkeys of 14 days old were infected in the crop with 4·10^6 Candida albicans cells, grown on Sabouraud broth for 48 hours at 37° C. and diluted with saline. The volume of the inoculum was 1 ml. The drug under investigation were premixed in 500 mg of lacton and thereafter admixed in 1000 g of meal without any additives. The concentration of the drug under investigation in the meal was expressed in mg/kg. The animals were given the medicated feed for 13 consecutive days starting on the day of infection. At the end of the experiment all animals were sacrificed. At autopsy the crops were removed, emptied and grinded in an ultra-turrax mixer in 15 ml of sterile saline. Colony counting was done on Sabouraud agar and the results given in Tables I and Ii represent the ED50, i.e., the dose of the drug whereby the crops of 50% of the animals were completely negative for Candida albicans.

[3] = Table I, read-out: Vaginal candidosis in rats: lowest effective dose
[4] = Table II, read-out: Vagingal candidosis in rats: lowest effective dose

Sc1nnnn1-c1ccc(OC[C@H]2CO[C@](Cn3ccnc3)(c3ccc(Cl)cc3Cl)O2)cc1 (relative stereo)
minimal effective dose (Candida albicans [1]; [3]): 2.5 mg/kg

CSc1nc(C)n(-c2ccc(OC[C@H]3CO[C@](Cn4ccnc4)(c4ccc(Cl)cc4Cl)O3)cc2)n1 (relative stereo)
minimal effective dose (Candida albicans [1]; [3]): 2.5 mg/kg

CSc1nncn1-c1ccc(OC[C@H]2CO[C@](Cn3ccnc3)(c3ccc(Cl)cc3Cl)O2)cc1 (relative stereo)
minimal effective dose (Candida albicans [1]; [3]): 10 mg/kg
Crop candidosis in Turkeys: ED50 in mg/kg of feed. (Candida albicans [2]): 8 mg/kg of feed

COc1ccc([C@@]2(Cn3ccnc3)OC[C@H](COc3ccc(-n4ccnc4)cc3)O2)cc1 (relative stereo)
minimal effective dose (Candida albicans [1]; [4]): 5 mg/kg

CCCn1ncn(-c2ccc(OC[C@H]3CO[C@](Cn4ccnc4)(c4ccc(Cl)cc4Cl)O3)cc2)c1=O (relative stereo)
minimal effective dose (Candida albicans [1]; [3]): < 10 mg/kg

Clc1ccc([C@@]2(Cn3ccnc3)OC[C@H](COc3ccc(-n4cccn4)cc3)O2)c(Cl)c1 (relative stereo)
minimal effective dose (Candida albicans [1]; [3]): 2.5 mg/kg
Crop candidosis in Turkeys: ED50 in mg/kg of feed. (Candida albicans [2]): 16 mg/kg of feed

Cc1nn(C)c(=O)n1-c1ccc(OC[C@H]2CO[C@](Cn3ccnc3)(c3ccc(Cl)cc3Cl)O2)cc1 (relative stereo)
minimal effective dose (Candida albicans [1]; [3]): 1.25 mg/kg

Cc1n[nH]c(=O)n1-c1ccc(OC[C@H]2CO[C@](Cn3ccnc3)(c3ccc(Cl)cc3Cl)O2)cc1 (relative stereo)
minimal effective dose (Candida albicans [1]; [3]): < 10 mg/kg

Clc1ccc([C@@]2(Cn3ccnc3)OC[C@H](COc3ccc(-n4ncnc4-c4ccccc4)cc3)O2)c(Cl)c1 (relative stereo)
minimal effective dose (Candida albicans [1]; [3]): 10 mg/kg

Clc1ccc([C@@]2(Cn3ccnc3)OC[C@H](COc3ccc(-n4cnnn4)cc3)O2)c(Cl)c1 (relative stereo)
Crop candidosis in Turkeys: ED50 in mg/kg of feed. (Candida albicans [2]): 31 mg/kg of feed

Cc1nccn1-c1ccc(OC[C@H]2CO[C@](Cn3ccnc3)(c3ccc(Cl)cc3Cl)O2)cc1 (relative stereo)
minimal effective dose (Candida albicans [1]; [3]): 10 mg/kg
Crop candidosis in Turkeys: ED50 in mg/kg of feed. (Candida albicans [2]): 125 mg/kg of feed

CCn1nc(C)n(-c2ccc(OC[C@H]3CO[C@](Cn4ccnc4)(c4ccc(Cl)cc4Cl)O3)cc2)c1=O (relative stereo)
minimal effective dose (Candida albicans [1]; [3]): 2.5 mg/kg

Cc1ncnn1-c1ccc(OC[C@H]2CO[C@](Cn3ccnc3)(c3ccc(Cl)cc3Cl)O2)cc1 (relative stereo)
minimal effective dose (Candida albicans [1]; [3]): 1.25 mg/kg
Crop candidosis in Turkeys: ED50 in mg/kg of feed. (Candida albicans [2]): 8 mg/kg of feed

CSc1ncn(-c2ccc(OC[C@H]3CO[C@](Cn4ccnc4)(c4ccc(Cl)cc4Cl)O3)cc2)n1 (relative stereo)
minimal effective dose (Candida albicans [1]; [3]): 1.25 mg/kg
Crop candidosis in Turkeys: ED50 in mg/kg of feed. (Candida albicans [2]): 16 mg/kg of feed

CCc1ncnn1-c1ccc(OC[C@H]2CO[C@](Cn3ccnc3)(c3ccc(Cl)cc3Cl)O2)cc1 (relative stereo)
minimal effective dose (Candida albicans [1]; [3]): 5 mg/kg
Crop candidosis in Turkeys: ED50 in mg/kg of feed. (Candida albicans [2]): 8 mg/kg of feed

Clc1ccc([C@@]2(Cn3ccnc3)OC[C@H](COc3ccc(-n4cncn4)cc3)O2)c(Cl)c1 (relative stereo)
minimal effective dose (Candida albicans [1]; [3]): 1.25 mg/kg
Crop candidosis in Turkeys: ED50 in mg/kg of feed. (Candida albicans [2]): 16 mg/kg of feed

CSc1nnc(C)n1-c1ccc(OC[C@H]2CO[C@](Cn3ccnc3)(c3ccc(Cl)cc3Cl)O2)cc1 (relative stereo)
minimal effective dose (Candida albicans [1]; [3]): 2.5 mg/kg

Cc1nnc([S+](C)[O-])n1-c1ccc(OC[C@H]2CO[C@](Cn3ccnc3)(c3ccc(Cl)cc3Cl)O2)cc1 (relative stereo)
minimal effective dose (Candida albicans [1]; [3]): 10 mg/kg
Crop candidosis in Turkeys: ED50 in mg/kg of feed. (Candida albicans [2]): 16 mg/kg of feed

Clc1ccc([C@@]2(Cn3ccnc3)OC[C@H](COc3ccc(-n4ccnc4)cc3)O2)c(Cl)c1 (relative stereo)
minimal effective dose (Candida albicans [1]; [3]): 1.25 mg/kg
Crop candidosis in Turkeys: ED50 in mg/kg of feed. (Candida albicans [2]): 8 mg/kg of feed

CC(C)n1ncn(-c2ccc(OC[C@H]3CO[C@](Cn4ccnc4)(c4ccc(Cl)cc4Cl)O3)cc2)c1=O (relative stereo)
minimal effective dose (Candida albicans [1]; [3]): < 10 mg/kg

CCCSc1nccn1-c1ccc(OC[C@H]2CO[C@](Cn3ccnc3)(c3ccc(Cl)cc3Cl)O2)cc1 (relative stereo)
minimal effective dose (Candida albicans [1]; [3]): 5 mg/kg
Crop candidosis in Turkeys: ED50 in mg/kg of feed. (Candida albicans [2]): 31 mg/kg of feed

C[S+]([O-])c1nncn1-c1ccc(OC[C@H]2CO[C@](Cn3ccnc3)(c3ccc(Cl)cc3Cl)O2)cc1 (relative stereo)
minimal effective dose (Candida albicans [1]; [3]): 2.5 mg/kg

CS(=O)(=O)c1nccn1-c1ccc(OC[C@H]2CO[C@](Cn3ccnc3)(c3ccc(Cl)cc3Cl)O2)cc1 (relative stereo)
minimal effective dose (Candida albicans [1]; [3]): 5 mg/kg

Clc1ccc(C2(Cn3cncn3)OCC(COc3ccc(-n4ccnc4)cc3)O2)c(Cl)c1 (stereo not drawn)
minimal effective dose (Candida albicans [1]; [4]): 1.25 mg/kg
Crop candidosis in Turkeys: ED50 in mg/kg in feed (Candida albicans [2]; Table II): 8 mg/kg in feed

Clc1ccc([C@@]2(Cn3ccnc3)OC[C@H](COc3ccc(-n4cccc4)cc3)O2)c(Cl)c1 (relative stereo)
minimal effective dose (Candida albicans [1]; [3]): 2.5 mg/kg
Crop candidosis in Turkeys: ED50 in mg/kg of feed. (Candida albicans [2]): 125 mg/kg of feed

CCOc1nncn1-c1ccc(OC[C@H]2CO[C@](Cn3ccnc3)(c3ccc(Cl)cc3Cl)O2)cc1 (relative stereo)
minimal effective dose (Candida albicans [1]; [3]): 2.5 mg/kg
Crop candidosis in Turkeys: ED50 in mg/kg of feed. (Candida albicans [2]): 31 mg/kg of feed

CSc1ncc(C)n1-c1ccc(OC[C@H]2CO[C@](Cn3ccnc3)(c3ccc(Cl)cc3Cl)O2)cc1 (relative stereo)
Crop candidosis in Turkeys: ED50 in mg/kg of feed. (Candida albicans [2]): 31 mg/kg of feed

CC(C)Sc1nccn1-c1ccc(OC[C@H]2CO[C@](Cn3ccnc3)(c3ccc(Cl)cc3Cl)O2)cc1 (relative stereo)
Crop candidosis in Turkeys: ED50 in mg/kg of feed. (Candida albicans [2]): 31 mg/kg of feed

CCn1ncn(-c2ccc(OC[C@H]3CO[C@](Cn4ccnc4)(c4ccc(Cl)cc4Cl)O3)cc2)c1=O (relative stereo)
minimal effective dose (Candida albicans [1]; [3]): 5 mg/kg
Crop candidosis in Turkeys: ED50 in mg/kg of feed. (Candida albicans [2]): 31 mg/kg of feed

CSc1nccn1-c1ccc(OC[C@H]2CO[C@](Cn3ccnc3)(c3ccc(Cl)cc3Cl)O2)cc1 (relative stereo)
minimal effective dose (Candida albicans [1]; [3]): 5 mg/kg
Crop candidosis in Turkeys: ED50 in mg/kg of feed. (Candida albicans [2]): 31 mg/kg of feed

CCSc1nccn1-c1ccc(OC[C@H]2CO[C@](Cn3ccnc3)(c3ccc(Cl)cc3Cl)O2)cc1 (relative stereo)
minimal effective dose (Candida albicans [1]; [3]): 5 mg/kg

Cc1ccn(-c2ccc(OC[C@H]3CO[C@](Cn4ccnc4)(c4ccc(Cl)cc4Cl)O3)cc2)n1 (relative stereo)
minimal effective dose (Candida albicans [1]; [3]): 2.5 mg/kg

Cc1nn(C(C)C)c(=O)n1-c1ccc(OC[C@H]2CO[C@](Cn3ccnc3)(c3ccc(Cl)cc3Cl)O2)cc1 (relative stereo)
minimal effective dose (Candida albicans [1]; [3]): 5 mg/kg

Clc1ccc([C@@]2(Cn3ccnc3)OC[C@H](COc3ccc(-n4ccnc4-c4ccccc4)cc3)O2)c(Cl)c1 (relative stereo)
minimal effective dose (Candida albicans [1]; [3]): 5 mg/kg
Crop candidosis in Turkeys: ED50 in mg/kg of feed. (Candida albicans [2]): 125 mg/kg of feed

Clc1ccc(C2(Cn3ccnc3)OCC(COc3cccc(-n4ccnc4)c3)O2)c(Cl)c1 (stereo not drawn)
minimal effective dose (Candida albicans [1]; [4]): 2.5 mg/kg
